# Results as given in US20150253330A1, “PRE-SELECTION OF SUBJECTS FOR THERAPEUTIC TREATMENT WITH AN HSP90 INHIBITOR BASED ON HYPOXIC STATUS” (Synta Pharmaceuticals Corp., priority 2012, published 2015).
# Entries after “also recorded” stand apart in the source; their conditions may differ.
# How the values were obtained:
# solid tumors [1] = assay: Phase I dose escalation study, twice-weekly administration in patients with solid tumors; format: in vivo, human
# Experimental: An open-label Phase 1 dose-escalation study in subjects with solid tumors was performed. The first cohort consisted of three subjects who received 2 mg/m^2 of ganetespib during a 1-hour infusion 2 times per week (e.g., [Monday, Thursday] or [Tuesday, Friday]) for three consecutive weeks followed by a 1 week dose-free interval. The first infusion for the first three subjects was staggered by a minimum of 5 days between subjects. This staggered enrollment scheme was followed for the first cohort only. Subjects tolerating ganetespib continued treatment past week 8 until disease progression as long as the re-treatment criteria continued to be met.
# Subsequent cohorts were originally planned to receive escalating doses of 4, 7, 10, 14, 19, 25, 33, 40, and 48 mg/m^2, provided that the previous dose was well-tolerated during cycle 1 (week 1-4). The dose escalation scheme was updated to 25, 50, 75 and 100 mg/m^2, provided that the previous dose was well-tolerated during cycle 1. Following the completion of enrollment at 50 mg/m^2 twice per week, subsequent cohorts were to be treated at 100 mg/m^2 (100% increase above prior dose) and 120 mg/m^2 (20% increase above prior dose), with further dose increments to be approximately 20% over the previous dose level, until the maximum tolerated dose (MTD) was determined. Enrollment was completed at 100 mg/m^2 and the next doses planned were 120 mg/m^2 and 144 mg/m^2.
# There had to be at least three evaluable subjects in a cohort before dose escalation could occur. […] Once a subject experienced a DLT the cohort was expanded to six subjects. If only 1 of 6 subjects experienced a DLT, further dose escalation was allowed. However, if 2 of 3 or 2 of 6 subjects experienced a DLT, dose escalation terminated.
# A subject's duration of participation included a 2-week screening period and two 4-week treatment cycles totaling approximately 10 weeks. However, at the investigator's discretion, subjects tolerating ganetespib continued treatment past week 8 until disease progression.
# The subjects in this study had histologically- or cytologically-confirmed non-hematological malignancy that was metastatic or unresectable. The subjects were documented to be refractory to, or were not candidates for, current standard therapy.
# Ganetespib was formulated using 90% v/v PEG 300 and 10% v/v Polysorbate 80 at a concentration of 8 mg/mL and was packaged in a Type I glass amber vial, stoppered with a Flurotec-coated stopper, and sealed. […] The formulation was further diluted with 5% dextrose for injection in infusion container (DEHP-free 500 mL) to a concentration range of 0.02 to 1.2 mg/mL and administered via infusion tubing (DEHP-free) with a 0.22 micron end filter over an hour to the patient. The dosing solution once prepared was administered within 3 hours. Eligible subjects received the drug during a 1-hour infusion 2 times per week for 3 consecutive weeks followed by a 1-week dose-free interval. The amount of ganetespib administered depended upon the cohort to which the subject was assigned and the subject's body surface area (BSA).
# A person with triple negative breast cancer (with Stage III invasive ductal carcinoma) from Example 1 enrolled in a Phase I dose escalation study of ganetespib. The patient's disease had progressed on 7 prior chemotherapeutic regimens. The patient was administered 144 mg/m^2 of ganetespib twice-weekly for 3 weeks, followed by 1 week dose-free. […] After 4 cycles, there was a documented 31% reduction in target lesion size (partial response). The treatment was interrupted due to brain metastases treated with whole brain radiation, but treatment with ganetespib resumed in cycle 5.
# solid tumors [2] = assay: Phase 1 trial of ganetespib in combination with docetaxel in solid tumors; format: in vivo, human
# Experimental: A trial to evaluate three dose-level combinations of docetaxel and ganetespib, administered on a three-week cycle, with the primary objective of determining an optimal dose for future clinical trials was performed. Docetaxel was administered as a one hour IV infusion on day 1 and ganetespib was administered as a one hour IV infusion on days 1 and 15. The dose level combinations evaluated were 150 mg/m^2 and 60 mg/m^2; 150 mg/m^2 and 75 mg/m^2; and 200 mg/m^2 and 75 mg/m^2 for ganetespib and docetaxel respectively. The standard of care dose level for docetaxel was 75 mg/m^2. A total of 19 patients received at least one dose of study treatment at the cut-off time. The median number of cycles of treatment was 4, with a range of 1 to 11 cycles of treatment. No prophylactic treatment for neutropenia was used. The combination of ganetespib at 150 mg/m^2 and docetaxel at 75 mg/m^2 was selected as the recommended dose.
# Hsp90 client proteins [3] = assay: Western blot of Hsp90 client proteins in AGS gastric cancer cells; format: cell-based
# Experimental: Ganetespib was also evaluated for its effects on Hsp90 client proteins in AGS gastric cancer cells by western blot. […] Similar to the observation in melanoma cells, exposure to ganetespib […] BRAF expression.
# SNU-1 = assay: 72 hr viability by Syto60, gastric cell line; format: cell-based; settings: Homo sapiens, SNU1, Syto60 (lower), read-out: ganetespib IC50
# AGS = assay: 72 hr viability by Syto60, gastric cell line; format: cell-based; settings: Homo sapiens, Syto60 (lower), read-out: ganetespib IC50
# Experimental: (§1) Many of the oncoproteins associated with gastric cancer and Hsp90 client proteins including HER2, MET, RAS and the FGFR family. Ganetespib was evaluated for its effect on the growth of AGS (wt-p53 and mut-KRAS) and MKN45 (wt-p53, wt-KRAS, MET amplified) gastric cancer cells. Cells were treated for 72 hr and viability determined by CTG (upper) or Syto60 (lower).
# MKN-45 = assay: 72 hr viability by Syto60, gastric cell line; format: cell-based; settings: Homo sapiens, Syto60 (lower), read-out: ganetespib IC50
# Experimental: as §1
# VEGF secretion = assay: VEGF ELISA of conditioned medium of pancreatic cancer cell lines; format: cell-based
# Experimental: VEGF concentration in the conditioned medium (from control and treated cells) was determined using a commercial Human VEGF Quantikine ELISA kit (R&D systems, Minneapolis, Minn.) as per manufacturer's instructions.
# Hsp90 client proteins [4] = assay: Western blot of Hsp90 client proteins in MKN45 cells; format: cell-based
# ECC12 = assay: 72 hr viability by Syto60, gastric cell line; format: cell-based; settings: Homo sapiens, Syto60 (lower), read-out: ganetespib IC50
# [5] = 41 of 54 enrolled patients assessable for response
# [6] = one TNBC patient, 144 mg/m^2 twice-weekly for 3 weeks, 1 week dose-free
structure (smiles),measurement,setting,value
CC(C)c1cc(-c2nnc(O)n2-c2ccc3c(ccn3C)c2)c(O)cc1O [ganetespib],"Confirmed partial responses, patient with melanoma",solid tumors [1]; [5],1 patient
same,"Confirmed partial responses, patient with triple negative breast cancer",solid tumors [1]; [5],1 patient
same,Patients who achieved stable disease,solid tumors [1]; [5],15 patients
same,Tolerability,"solid tumors [1]; one TNBC patient, 144 mg/m^2 twice-weekly",tolerated the treatment well with mild/moderate toxicities
same,Reduction in target lesion size after 4 cycles (partial response),solid tumors [1]; [6],31%
same,Response per RECIST after 2 cycles,solid tumors [1]; [6],stable disease
same,Febrile neutropenia,"solid tumors [2]; four patients, ganetespib in combination with docetaxel",22%
same,Neutropenia (most common adverse event),solid tumors [2]; ganetespib in combination with docetaxel,67%
same,Recommended dose of ganetespib,solid tumors [2]; in combination with docetaxel at 75 mg/m^2,150 mg/m^2
same,Serious adverse events,"solid tumors [2]; nine patients, ganetespib in combination with docetaxel",50%
same,Shrinkage of target tumor lesions,"solid tumors [2]; one patient with cancer of the parotid gland, ganetespib with docetaxel",over 50%
same,Effect of ganetespib on docetaxel pharmacokinetics,solid tumors [2]; patients,no effect
same,Pharmacokinetics of ganetespib alone versus prior to docetaxel,solid tumors [2]; patients,pharmacokinetic similarity
same,Effect on Hsp90 client proteins by western blot,Hsp90 client proteins [3],"abolished the expression of EGFR, IGF-IR, C-RAF"
same,IC50,SNU-1,6 nM
same,IC50,AGS,5 nM
same,IC50,MKN-45,8 nM
same,VEGF secretion in the culture medium,VEGF secretion,reduced VEGF secretion; also recorded: decrease in VEGF secretion; also recorded: down-regulation of VEGF secretion
same,Effect on Hsp90 client proteins by western blot,Hsp90 client proteins [4],complete degradation of MET and IGF-IR
same,IC50,ECC12,12 nM
